Measured values published in PubChem BioAssay (NCI).
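Five concentrations, 48 hours, 96-well plates. GI50 marks 50% less growth. TGI is the concentration that stops growth completely.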

Key:
Assay in all cases: NCI tumour cell line growth inhibition, 48 h
[1] = system: RXF 393 renal
[2] = system: SF-295 CNS
[3] = system: NCI-H23 lung
[4] = system: BT-549 breast
[5] = system: OVCAR-8 ovarian
[6] = system: UACC-62 melanoma
[7] = system: MALME-3M melanoma
[8] = system: SR leukemia
[9] = system: A498 renal
[10] = system: UACC-257 melanoma

## CC(=O)O[C@H](C[C@H](C(C)C)N(C)C(=O)[C@@H](NC(=O)[C@H]1CCCCN1C)C(C)(C)C)c1nc(C(=O)N[C@@H](Cc2ccccc2)C[C@H](C)C(=O)O)cs1
[1]
  GI50: < 0.0025 µM
  TGI: > 25 µM
[2]
  GI50: < 0.0025 µM
  TGI: > 8.94 µM
[3]
  GI50: < 0.0025 µM
  TGI: > 25 µM
[4]
  GI50: 0.00304 µM
  TGI: 0.0645 µM
[5]
  GI50: < 0.0025 µM
  TGI: > 25 µM
[6]
  GI50: < 0.0025 µM
  TGI: > 25 µM
[7]
  GI50: < 0.0025 µM
  TGI: > 25 µM
[8]
  GI50: < 0.0025 µM
  TGI: > 25 µM

## FC(F)(F)c1cc(NC2=NCCN=C(Nc3cc(C(F)(F)F)cc(C(F)(F)F)c3)SS2)cc(C(F)(F)F)c1
[1]
  GI50: 2.66 µM
  TGI: 11.2 µM
[2]
  GI50: 3.08 µM
  TGI: 12.2 µM
[3]
  GI50: 4.75 µM
  TGI: 17.4 µM
[4]
  GI50: 6.2 µM
  TGI: 19.1 µM
[5]
  GI50: 3.7 µM
  TGI: 16.9 µM
[9]
  GI50: 2.24 µM
  TGI: 9.68 µM
[6]
  GI50: 3.55 µM
  TGI: 14.5 µM
[7]
  GI50: 4.12 µM
  TGI: 15.5 µM
[8]
  GI50: 3.76 µM
  TGI: 20.4 µM

## N#CC1CCc2c(c(-c3cn[nH]c3C(F)(F)F)nc3c(F)cc4[nH]ncc4c23)C1 (stereo not given)
[1]
  GI50: 2.39 µM
  TGI: 7.3 µM
[2]
  GI50: 14 µM
  TGI: 46.2 µM
[3]
  GI50: 5.36 µM
  TGI: 28.4 µM
[4]
  GI50: 3.16 µM
  TGI: 12.9 µM
[5]
  GI50: 13.7 µM
  TGI: > 100 µM
[9]
  GI50: 2.09 µM
  TGI: 6.75 µM
[10]
  GI50: 12.9 µM
  TGI: 74.5 µM
[6]
  GI50: 3.43 µM
  TGI: 11.5 µM
[7]
  GI50: 3.31 µM
  TGI: 11.5 µM
[8]
  GI50: 2.92 µM
  TGI: 59.1 µM

## CC(=O)Nc1cc2cc(NS(=O)(=O)c3cc(C(F)(F)F)cc(C(F)(F)F)c3)ccc2oc1=O
[1]
  TGI: 0.811 µM
[2]
  TGI: > 100 µM
[3]
  TGI: > 100 µM
[4]
  TGI: > 100 µM
[5]
  TGI: > 100 µM
[9]
  TGI: > 100 µM
[10]
  TGI: > 100 µM
[6]
  TGI: > 100 µM
[7]
  TGI: > 100 µM
[8]
  TGI: > 100 µM

## Cc1nn2c(/C=C3\C(=O)Nc4ccccc43)c(C)nc2s1
[1]
  GI50: 26.2 µM
  TGI: 87.6 µM
[2]
  GI50: 29.1 µM
  TGI: > 100 µM
[3]
  GI50: 35.4 µM
  TGI: > 100 µM
[4]
  GI50: > 100 µM
  TGI: > 100 µM
[5]
  GI50: 77.8 µM
  TGI: > 100 µM
[9]
  GI50: 31.3 µM
  TGI: > 100 µM
[10]
  GI50: > 100 µM
  TGI: > 100 µM
[6]
  GI50: 35.5 µM
  TGI: > 100 µM
[7]
  GI50: > 100 µM
  TGI: > 100 µM
[8]
  GI50: 4.86 µM
  TGI: > 100 µM

## NC(=S)N/N=C\c1nccc2c(C(F)(F)C(F)(F)C(F)(F)F)cccc12
[1]
  GI50: 0.113 µM
  TGI: 1.26 µM
[2]
  GI50: 0.209 µM
  TGI: 1.7 µM
[3]
  GI50: 0.422 µM
  TGI: 12.4 µM
[4]
  GI50: 0.313 µM
  TGI: 11.7 µM
[5]
  GI50: 0.0402 µM
  TGI: 1.59 µM
[9]
  GI50: 0.464 µM
  TGI: 2.1 µM
[10]
  GI50: 0.12 µM
  TGI: 0.575 µM
[6]
  GI50: 0.171 µM
  TGI: 0.511 µM
[7]
  GI50: 0.189 µM
  TGI: 1.43 µM
[8]
  GI50: 0.0433 µM
  TGI: > 32.4 µM

## CCCNc1cccc(-n2ncc3c(N/N=C/c4ccncc4)ncnc32)c1
[1]
  GI50: 1.07 µM
  TGI: > 25 µM
[2]
  GI50: 3.58 µM
  TGI: > 25 µM
[3]
  GI50: > 25 µM
  TGI: > 25 µM
[4]
  GI50: > 8.4 µM
  TGI: > 25 µM
[5]
  GI50: 11.7 µM
  TGI: > 25 µM
[9]
  GI50: 1.12 µM
  TGI: > 25 µM
[10]
  GI50: > 25 µM
  TGI: > 25 µM
[6]
  GI50: > 7.76 µM
  TGI: > 25 µM
[7]
  GI50: > 7.75 µM
  TGI: > 25 µM
[8]
  GI50: 1.18 µM
  TGI: > 25 µM

## Cc1cc(O)c2c(c1)C(=O)C(c1c(C)cc3c(c1O)C(=O)C1OC1C3=O)=CC2=O (stereo not given)
[1]
  TGI: 3.11 µM
[2]
  TGI: 32.6 µM
[3]
  TGI: 22.8 µM
[4]
  TGI: 6.32 µM
[5]
  TGI: 18.2 µM
[9]
  TGI: 14.3 µM
[10]
  TGI: 11.3 µM
[6]
  TGI: 4.77 µM
[7]
  TGI: 3.96 µM
[8]
  TGI: 40.1 µM

## O=C(Nc1ccc(-c2ccnc(Nc3ccc(N4CCOCC4)cc3)n2)cc1)C1CCCN1 (stereo not given)
[1]
  GI50: 2.23 µM
  TGI: 9.36 µM
[2]
  GI50: 4.18 µM
  TGI: 20.4 µM
[3]
  GI50: 12.1 µM
  TGI: 32.4 µM
[4]
  GI50: 8.76 µM
  TGI: 23 µM
[5]
  GI50: 5.09 µM
  TGI: 28.3 µM
[9]
  GI50: 6.4 µM
  TGI: 17.9 µM
[10]
  GI50: 8.99 µM
  TGI: 22.8 µM
[6]
  GI50: 6.63 µM
  TGI: 20.8 µM
[7]
  GI50: 6.71 µM
  TGI: 23.1 µM
[8]
  TGI: > 25.6 µM

## CC(C)(O)CCC(O)C(C)(O)C1CCC2(O)C3=CC(=O)C4(O)CC(O)C(O)CC4(C)C3CCC12C (stereo not given) (tested in a mixture with another compound)
[1]
  TGI: > 100 µM
[2]
  TGI: > 100 µM
[3]
  TGI: > 100 µM
[4]
  TGI: > 100 µM
[5]
  TGI: > 100 µM
[9]
  TGI: > 100 µM
[10]
  TGI: > 100 µM
[6]
  TGI: > 100 µM
[7]
  TGI: > 100 µM
[8]
  TGI: > 100 µM

## COc1ccc(S(=O)(=O)n2c3ccccc3n3ncc(-c4nnc(C)o4)c23)cc1
[1]
  GI50: 0.319 µM
  TGI: 3.97 µM
[2]
  GI50: 0.37 µM
  TGI: 14.4 µM
[3]
  GI50: 0.786 µM
  TGI: 75.8 µM
[4]
  GI50: 0.516 µM
  TGI: 20 µM
[5]
  GI50: 1.27 µM
  TGI: > 100 µM
[9]
  GI50: 0.298 µM
  TGI: 1.9 µM
[10]
  GI50: 22.4 µM
  TGI: > 87 µM
[6]
  GI50: 0.609 µM
  TGI: 32.5 µM
[8]
  GI50: 0.77 µM
  TGI: > 100 µM

## O=C(O)c1ccc2cccnc2c1O
[1]
  GI50: 1.94 µM
  TGI: 36.4 µM
[2]
  GI50: 0.0521 µM
  TGI: 0.474 µM
[3]
  GI50: 1.05 µM
  TGI: 29.1 µM
[4]
  GI50: 0.561 µM
  TGI: > 20 µM
[5]
  GI50: 1.27 µM
  TGI: > 59.1 µM
[9]
  TGI: > 92.4 µM
[10]
  GI50: 2.02 µM
  TGI: 5.29 µM
[6]
  GI50: 1.54 µM
  TGI: 9.64 µM
[7]
  GI50: 1.84 µM
  TGI: 4.41 µM
[8]
  GI50: 2.23 µM
  TGI: > 100 µM

## S=c1[nH]nc(SCc2ccccc2Cl)c2[nH]cnc12
[1]
  TGI: > 100 µM
[2]
  TGI: > 100 µM
[3]
  TGI: > 100 µM
[4]
  TGI: > 100 µM
[5]
  TGI: > 100 µM
[9]
  TGI: > 100 µM
[10]
  TGI: > 100 µM
[6]
  TGI: > 100 µM
[7]
  TGI: > 100 µM
[8]
  TGI: > 100 µM

## Cc1ccc(S(=O)(=O)c2ccsc2N)cc1
[1]
  GI50: 63.9 µM
  TGI: > 100 µM
[2]
  GI50: > 100 µM
  TGI: > 100 µM
[3]
  GI50: > 100 µM
  TGI: > 100 µM
[4]
  GI50: > 100 µM
  TGI: > 100 µM
[5]
  GI50: > 100 µM
  TGI: > 100 µM
[9]
  GI50: 40.7 µM
  TGI: > 100 µM
[10]
  GI50: > 100 µM
  TGI: > 100 µM
[6]
  GI50: > 100 µM
  TGI: > 100 µM
[7]
  GI50: > 100 µM
  TGI: > 100 µM
[8]
  GI50: > 100 µM
  TGI: > 100 µM
